Results: ChEMBL document CHEMBL5625178, “The topoisomerase II β -kinase associated with HIV-1 is a potential target for pyridine-bischalcones' anti-HIV-1 activity” (Eur J Med Chem, 2023)
The source made the active and inactive calls. The rule behind the calls is not given here.

Experiments:
[1] = Cytotoxicity against human SUP-T1 cells assessed as reduction in cell viability incubated for 16 hrs by MTT assay; assay type: toxicity, cell-based
[2] = tested on: Human immunodeficiency virus 1; assay: (§1) Inhibition of HIV-1 topoisomerase II beta kinase phosphorylation in the presence of […][gamma 32P]-ATP incubated for 30 mins by liquid scintillation counter analysis; settings: dose 0.25-600 pM
[3] = tested on: Human immunodeficiency virus 1; assay: Antiviral activity against HIV1 infected in human SUP-T1 cells assessed as inhibition of viral replication incubated for 5 hrs by sandwich ELISA method; assay type: functional, organism-based
[4] = as §1; design: species or system Human immunodeficiency virus 1
[5] = tested on: Human immunodeficiency virus 1; assay: Antiviral activity against HIV1 93IN101 infected in human SUP-T1 cells assessed as suppression of proviral DNA synthesis at IC50 concentration incubated for 5 hrs by PCR analysis; assay type: functional, organism-based
[6] = tested on: SUP-T1; assay: Inhibition of Topoisomerase II beta serine phosphorylation in human SUP-T1 cells infected with HIV1 93IN101 by Western blot analysis; assay type: cell-based; settings: dose 5-50 nM

| inhibition [2] | IC50 [4] | Structure (SMILES) | CC50 at 16 h [1] | Activity [3] | Activity [5] | inhibition [6] |
| --- | --- | --- | --- | --- | --- | --- |
| Dose-Dependent Effect |  | c1ccc(-c2cccnc2)cc1 | 1500 nM |  |  |  |
|  | 0.55 nM | O=C1/C(=C/c2ccccn2)CCC/C1=C\c1ccccn1 | 920 nM | Dose-Dependent Effect |  |  |
|  | 0.14 nM | C[n+]1ccccc1/C=C1\CCC/C(=C\c2cccc[n+]2C)C1=O | 2040 nM | Dose-Dependent Effect | Active | Dose-Dependent Effect |
|  | 0.32 nM | O=C1/C(=C/c2cccnc2)CCC/C1=C\c1cccnc1 | 960 nM | Dose-Dependent Effect |  |  |

More lines, now with the values behind:

| Structure (SMILES) | inhibition [2] | IC50 [4] | CC50 at 16 h [1] | Activity [3] | Activity [5] | inhibition [6] |
| --- | --- | --- | --- | --- | --- | --- |
| Cc1cn([C@H]2C[C@H](N=[N+]=[N-])[C@@H](CO)O2)c(=O)[nH]c1=O |  |  |  | Dose-Dependent Effect |  |  |
| C[n+]1cccc(/C=C2\CCC/C(=C\c3ccc[n+](C)c3)C2=O)c1 |  | 0.1 nM | 2120 nM | Dose-Dependent Effect | Active | Dose-Dependent Effect |
| O=C1/C(=C/c2ccncc2)CCC/C1=C\c1ccncc1 | Dose-Dependent Effect | 0.44 nM | 820 nM | Dose-Dependent Effect |  |  |
| C[n+]1ccc(/C=C2\CCC/C(=C\c3cc[n+](C)cc3)C2=O)cc1 |  | 0.15 nM | 2020 nM | Dose-Dependent Effect | Active | Dose-Dependent Effect |
